The record followed here is patent US20050124562A1, “Bis-quinazoline compounds for the treatment of bacterial infections” (priority 2003, published 2005).

For the experiment, the system named is S. aureus, E. faecalis, S. pyogenes and S. pneumoniae. The experiment can be described thus: Broth microdilution MIC (NCCLS), gram-positive strains. It is filed as cell-based. The note with it: range against some strains of S. aureus, E. faecalis, S. pyogenes and S. pneumoniae; read-out: MIC. Here is the method:
Representative bis-quinazolines were tested for antibacterial activity using the […] microdilution method to determine their minimum inhibitory concentrations (MICs). All compounds were tested using standard methods in accordance with NCCLS guidelines (National Committee for Clinical Laboratory Standards. 2003. Methods for dilution antimicrobial susceptibility testing for bacteria that grow aerobically. Approved Standard M-7 A-6, NCCLS, Wayne, Pa.). The bacterial strains used in the susceptibility tests were obtained from the American Type Culture Collection (ATCC) and included resistant phenotypes such as oxacillin-resistant S. aureus (ORSA) and vancomycin-resistant enterococci (VRE). The minimum bactericidal concentrations (MBCs) were determined for selected organisms. The effect of protein binding on the antibacterial activity of representative bis-quinazolines were determined by conducting MIC tests in the presence of human serum.

`COc1cc2nc(Nc3nc(O)c4c(N(C)C)cccc4n3)nc(C)c2cc1OC.O=C(O)C(F)(F)F` [Example 128, 2-(6,7-Dimethoxy-4-methyl-quinazolin-2-ylamino)-5-dimethylamino-quinazolin-4-ol trifluoroacetate salt]: the MIC lay in the range of 0.06 to 16 µg/mL.

With `COc1cc(OC)c2nc(Nc3nc(O)c4c5c(ccc4n3)OCO5)nc(C)c2c1.O=C(O)C(F)(F)F` [Example 130, 7-(6,8-Dimethoxy-4-methyl-quinazolin-2-ylamino)-1,3-dioxa-6,8-diaza-cyclopenta[a]naphthalen-9-ol trifluoroacetate salt], the minimal inhibitory concentration (MIC) was in the range of 0.06 to 16 µg/mL.

In the case of `COc1cc(OC)c2nc(Nc3nc(O)c4c(OC)c(OC)ccc4n3)nc(C)c2c1.O=C(O)C(F)(F)F` [Example 134, 2-(6,8-Dimethoxy-4-methyl-quinazolin-2-ylamino)-5,6-dimethoxy-quinazolin-4-ol TFA salt], the MIC lay within 0.06 to 16 µg/mL.

Take `COc1cc(OC)c2nc(Nc3nc(O)c4c(OC)c(OC)ccc4n3)nc(C)c2c1.Cl` [Example 135, 2-(6,8-Dimethoxy-4-methyl-quinazolin-2-ylamino)-5,6-dimethoxy-quinazolin-4-ol HCl salt]: the MIC was 0.06 to 16 µg/mL.

Turning to `COc1cc2nc(Nc3nc(O)c4cc(OCCO)ccc4n3)nc(C)c2cc1OC.O=C(O)C(F)(F)F` [Example 136, 2-(6,7-Dimethoxy-4-methyl-quinazolin-2-ylamino)-6-(2-hydroxy-ethoxy)-quinazolin-4-ol trifluoroacetate salt], the MIC was in the range of 0.06 to 16 µg/mL.

For `COc1cc(OC)c2nc(Nc3nc(O)c4cc(OCCO)ccc4n3)nc(C)c2c1.O=C(O)C(F)(F)F` [Example 137, 2-(6,8-Dimethoxy-4-methyl-quinazolin-2-ylamino)-6-(2-hydroxy-ethoxy)-quinazolin-4-ol trifluoroacetate salt], the MIC lay in the range of 0.06 to 16 µg/mL.

On to `COc1cc2nc(Nc3nc(O)c4cc(OCCN(C)CCO)ccc4n3)nc(C)c2cc1OC.O=C(O)C(F)(F)F` [Example 139, 2-(6,7-Dimethoxy-4-methyl-quinazolin-2-ylamino)-6-{2-[(2-hydroxy-ethyl)-methyl-amino]-ethoxy}-quinazolin-4-ol trifluoroacetate salt], for which the MIC was 0.06 to 16 µg/mL.

In the case of `COc1cc(OC)c2nc(Nc3nc(O)c4cc(OCCN5CCOCC5)ccc4n3)nc(C)c2c1.O=C(O)C(F)(F)F` [Example 141, 2-(6,8-Dimethoxy-4-methyl-quinazolin-2-ylamino)-6-(2-morpholin-4-yl-ethoxy)-quinazolin-4-ol trifluoroacetate salt], the MIC was 0.06 to 16 µg/mL.

For the compound `CCN(CCO)CCOc1ccc2nc(Nc3nc(C)c4cc(OC)cc(OC)c4n3)nc(O)c2c1.O=C(O)C(F)(F)F` [Example 167, 2-(6,8-Dimethoxy-4-methyl-quinazolin-2-ylamino)-6-{2-[ethyl-(2-hydroxy-ethyl)-amino]-ethoxy}-quinazolin-4-ol trifluoroacetate salt], the MIC is 0.06 to 16 µg/mL.

For `COc1cc(OC)c2nc(Nc3nc(O)c4cc(OCCN5CCCC5CO)ccc4n3)nc(C)c2c1.O=C(O)C(F)(F)F` (stereo not drawn) [Example 168, 2-(6,8-Dimethoxy-4-methyl-quinazolin-2-ylamino)-6-[2-(2-hydroxymethyl-pyrrolidin-1-yl)-ethoxy]-quinazolin-4-ol trifluoroacetate salt], the MIC lay within 0.06 to 16 µg/mL.

Regarding `COc1cc2nc(Nc3nc(O)c4cc(OCCN5CCCCC5CO)ccc4n3)nc(C)c2cc1OC.O=C(O)C(F)(F)F` (stereo not drawn) [Example 173, 2-(6,7-Dimethoxy-4-methyl-quinazolin-2-ylamino)-6-[2-(2-hydroxymethyl-piperidin-1-yl)-ethoxy]-quinazolin-4-ol trifluoroacetate salt], the MIC lay in the range of 0.06 to 16 µg/mL.

As to `COc1cc2nc(Nc3nc(O)c4cc(OCCn5cnnc5)ccc4n3)nc(C)c2cc1OC.O=C(O)C(F)(F)F` [Example 174, 2-(6,7-Dimethoxy-4-methyl-quinazolin-2-ylamino)-6-(2-[1,2,4]triazol-4-yl-ethoxy)-quinazolin-4-ol trifluoroacetate salt], the MIC lay in the range of 0.06 to 16 µg/mL.

For orientation: MIC means the lowest concentration found to suppress growth.
